Measurements: US12723063B2, “GIPR-agonist compounds” (Eli Lilly and Company, priority 2019, dated 2026)
*1 amine or outer side, *2 acyl side, *3 side chain or, on linkers, in order; H or OH if unused. Where a SMILES comes first, the peptide text is derived from it. Side-chain parts run from the residue outwards. [ ]: non-standard residue; d: D form. The star is where a group is joined. C20 diacid = O=C(O)CCCCCCCCCCCCCCCCCCC(=O)*; αMePhe(2-F) = C[C@](N)(Cc1ccccc1F)C(=O)O; γGlu = O=C(O)[C@H](CCC(=O)[*:2])N[*:1]; 4Pal = N[C@@H](Cc1ccncc1)C(=O)O; αMeL = CC(C)C[C@](C)(N)C(=O)O; Iva = CC[C@](C)(N)C(=O)O; Orn = NCCC[C@H](N)C(=O)O; AEEA = NCCOCCOCC(=O)O; Aib = CC(C)(N)C(=O)O

Experiments:
human GIPR = target: T1, human GIPR (Homo sapiens, UniProt P48546); test: [125I]-GIP binding, SPA with WGA beads, 0.1% bacitracin; details: geometric mean, read-out: hGIPR Ki
T1 construct: expressed in transfected cells; crude membranes
T1 sequence (P48546 22-466): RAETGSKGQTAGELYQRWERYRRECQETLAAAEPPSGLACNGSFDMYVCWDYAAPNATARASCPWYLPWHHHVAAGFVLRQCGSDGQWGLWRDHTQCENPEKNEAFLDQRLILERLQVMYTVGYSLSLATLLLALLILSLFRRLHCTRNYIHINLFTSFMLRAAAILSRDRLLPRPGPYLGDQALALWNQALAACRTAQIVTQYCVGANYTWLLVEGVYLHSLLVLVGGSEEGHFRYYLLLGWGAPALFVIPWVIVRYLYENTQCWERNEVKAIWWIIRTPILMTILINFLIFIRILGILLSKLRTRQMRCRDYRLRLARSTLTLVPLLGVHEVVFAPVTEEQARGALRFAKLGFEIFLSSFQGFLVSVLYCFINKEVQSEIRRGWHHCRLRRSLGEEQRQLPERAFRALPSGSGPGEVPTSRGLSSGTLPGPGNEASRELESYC
Procedure, shortened: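 Ki values are geometric means (SEM, n independent days), derived from four-parameter nonlinear regression of IC50. Membranes came from hGIPR-expressing CHO cells.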

human GLP-1R = target: T2, human GLP-1R (Homo sapiens, UniProt P43220); test: [125I]-GLP-1 binding, SPA with WGA beads, 0.1% bacitracin; details: geometric mean, read-out: hGLP1R Ki
T2 construct: expressed in transfected cells; crude membranes
T2 sequence (P43220 24-463): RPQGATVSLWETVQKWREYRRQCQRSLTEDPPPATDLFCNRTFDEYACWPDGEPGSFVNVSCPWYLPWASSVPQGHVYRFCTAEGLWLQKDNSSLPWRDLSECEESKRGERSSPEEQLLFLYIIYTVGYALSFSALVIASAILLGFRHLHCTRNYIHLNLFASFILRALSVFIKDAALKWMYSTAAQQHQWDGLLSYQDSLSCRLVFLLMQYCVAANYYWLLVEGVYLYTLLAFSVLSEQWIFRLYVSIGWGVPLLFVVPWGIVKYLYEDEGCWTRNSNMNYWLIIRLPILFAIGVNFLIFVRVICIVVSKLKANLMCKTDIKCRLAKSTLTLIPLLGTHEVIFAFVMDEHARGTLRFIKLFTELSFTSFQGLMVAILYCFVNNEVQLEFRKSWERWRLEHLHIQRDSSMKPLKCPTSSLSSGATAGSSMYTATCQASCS
Procedure, shortened: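 Binding buffer was 25 mM HEPES pH 7.4 with 2.5 mM CaCl2, 1 mM MgCl2, 0.1% (w/v) bacitracin, 0.003% Tween-20 and EDTA-free protease inhibitors. Four-parameter regression gave IC50, converted to Ki (geometric mean, SEM, n independent days).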

SMILES | Ki (human GIPR) [nM] | Ki (human GLP-1R) [nM]
CC[C@H](C)[C@H](NC(=O)[C@H](CCCN)NC(=O)[C@H](CC(=O)O)NC(=O)[C@H](CC(C)C)NC(=O)[C@](C)(CC(C)C)NC(=O)[C@@H](NC(=O)[C@H](CO)NC(=O)[C@H](Cc1ccc(O)cc1)NC(=O)[C@H](CC(=O)O)NC(=O)[C@H](CO)NC(=O)[C@@H](NC(=O)[C@H](Cc1ccccc1)NC(=O)[C@@H](NC(=O)CNC(=O)[C@H](CCC(=O)O)NC(=O)C(C)(C)NC(=O)[C@@H](N)Cc1ccc(O)cc1)[C@@H](C)O)[C@@H](C)CC)[C@@H](C)CC)C(=O)N[C@@H](Cc1c[nH]cn1)C(=O)N[C@@H](CCC(N)=O)C(=O)NC(C)(C)C(=O)N[C@@H](CCC(=O)O)C(=O)N[C@@H](Cc1ccccc1)C(=O)N[C@H](C(=O)N[C@@H](CCC(=O)O)C(=O)N[C@@H](Cc1ccc(O)cc1)C(=O)N[C@@H](CCCCNC(=O)COCCOCCNC(=O)COCCOCCNC(=O)CC[C@H](NC(=O)CCCCCCCCCCCCCCCCCCC(=O)O)C(=O)O)C(=O)N[C@@H](CC(C)C)C(=O)N[C@@H](CCC(=O)O)C(=O)N[C@H](C(=O)NCC(=O)N1CCC[C@H]1C(=O)N[C@@H](CO)C(=O)N[C@@H](CO)C(=O)NCC(=O)N[C@@H](C)C(=O)N1CCC[C@H]1C(=O)N1CCC[C@H]1C(=O)N1CCC[C@H]1C(=O)N[C@@H](CO)C(N)=O)[C@@H](C)O)C(C)C [Example 105] (H-Y[Aib]EGTFISDYSI[αMeL]LD[Orn]IHQ[Aib]EFVEYK([AEEA-AEEA-γGlu-C20 diacid])LETGPSSGAPPPS-NH2) | 0.174 | > 910
CC[C@H](C)[C@H](NC(=O)[C@H](CCCCN)NC(=O)[C@H](CC(=O)O)NC(=O)[C@H](CC(C)C)NC(=O)[C@](C)(CC(C)C)NC(=O)[C@@H](NC(=O)[C@H](CO)NC(=O)[C@H](Cc1ccc(O)cc1)NC(=O)[C@H](CC(=O)O)NC(=O)[C@H](CO)NC(=O)[C@@H](NC(=O)[C@H](Cc1ccccc1)NC(=O)[C@@H](NC(=O)CNC(=O)[C@H](CCC(=O)O)NC(=O)C(C)(C)NC(=O)[C@@H](N)Cc1ccc(O)cc1)[C@@H](C)O)[C@@H](C)CC)[C@@H](C)CC)C(=O)N[C@@H](Cc1c[nH]cn1)C(=O)N[C@@H](CCC(N)=O)C(=O)NC(C)(C)C(=O)N[C@@H](CC(=O)O)C(=O)N[C@@H](Cc1ccccc1)C(=O)N[C@H](C(=O)N[C@@H](CCC(=O)O)C(=O)N[C@@H](Cc1ccncc1)C(=O)N[C@@H](CCCCNC(=O)COCCOCCNC(=O)COCCOCCNC(=O)CC[C@H](NC(=O)CCCCCCCCCCCCCCCCCCC(=O)O)C(=O)O)C(=O)N[C@@H](CC(C)C)C(=O)N[C@@H](CCC(=O)O)C(=O)NCC(=O)NCC(=O)N1CCC[C@H]1C(=O)N[C@@H](CO)C(=O)N[C@@H](CO)C(=O)NCC(=O)N[C@@H](C)C(=O)N1CCC[C@H]1C(=O)N1CCC[C@H]1C(=O)N1CCC[C@H]1C(=O)N[C@@H](CO)C(N)=O)C(C)C [Example 109] (H-Y[Aib]EGTFISDYSI[αMeL]LDKIHQ[Aib]DFVE[4Pal]K([AEEA-AEEA-γGlu-C20 diacid])LEGGPSSGAPPPS-NH2) | 0.117 | > 908
CC[C@H](C)[C@H](NC(=O)[C@H](CO)NC(=O)[C@H](Cc1ccc(O)cc1)NC(=O)[C@H](CC(=O)O)NC(=O)[C@H](CO)NC(=O)[C@@H](NC(=O)[C@H](Cc1ccccc1)NC(=O)[C@@H](NC(=O)CNC(=O)[C@H](CCC(=O)O)NC(=O)[C@@H](C)NC(=O)[C@@H](N)Cc1ccc(O)cc1)[C@@H](C)O)[C@@H](C)CC)C(=O)N[C@@H](CC(C)C)C(=O)N[C@@H](CC(C)C)C(=O)N[C@@H](CC(=O)O)C(=O)N[C@@H](CCCCN)C(=O)N[C@@H](CCCCNC(=O)COCCOCCNC(=O)COCCOCCNC(=O)CC[C@H](NC(=O)CCCCCCCCCCCCCCCCCCC(=O)O)C(=O)O)C(=O)N[C@@H](Cc1c[nH]cn1)C(=O)N[C@@H](CCC(N)=O)C(=O)N[C@@H](CCC(N)=O)C(=O)N[C@@H](CC(=O)O)C(=O)N[C@@H](Cc1ccccc1)C(=O)N[C@H](C(=O)N[C@@H](CCC(=O)O)C(=O)N[C@@H](Cc1c[nH]c2ccccc12)C(=O)N[C@@H](CC(C)C)C(=O)N[C@@H](CC(C)C)C(=O)N[C@@H](C)C(=O)N[C@@H](CCC(N)=O)C(=O)NCC(=O)N1CCC[C@H]1C(=O)N[C@@H](CO)C(=O)N[C@@H](CO)C(=O)NCC(=O)N[C@@H](C)C(=O)N1CCC[C@H]1C(=O)N1CCC[C@H]1C(=O)N1CCC[C@H]1C(=O)N[C@@H](CO)C(N)=O)C(C)C [Example 14] (H-Y[dA]EGTFISDYSILLDKK([AEEA-AEEA-γGlu-C20 diacid])HQQDFVEWLLAQGPSSGAPPPS-NH2) | 0.46 | > 213
CC[C@H](C)[C@H](NC(=O)[C@H](CO)NC(=O)[C@H](Cc1ccc(O)cc1)NC(=O)[C@H](CC(=O)O)NC(=O)[C@H](CO)NC(=O)[C@@H](NC(=O)[C@](C)(Cc1ccccc1F)NC(=O)[C@@H](NC(=O)CNC(=O)[C@H](CCC(=O)O)NC(=O)C(C)(C)NC(=O)[C@@H](N)Cc1ccc(O)cc1)[C@@H](C)O)[C@@H](C)CC)C(=O)N[C@@H](CC(C)C)C(=O)N[C@@H](CC(C)C)C(=O)N[C@@H](CC(=O)O)C(=O)N[C@@H](CCCCN)C(=O)N[C@H](C(=O)N[C@@H](Cc1c[nH]cn1)C(=O)N[C@@H](CCC(N)=O)C(=O)NC(C)(C)C(=O)N[C@@H](CC(=O)O)C(=O)N[C@@H](Cc1ccccc1)C(=O)N[C@H](C(=O)N[C@@H](CCC(=O)O)C(=O)N[C@@H](Cc1ccncc1)C(=O)N[C@@H](CCCCNC(=O)COCCOCCNC(=O)COCCOCCNC(=O)CC[C@H](NC(=O)CCCCCCCCCCCCCCCCCCC(=O)O)C(=O)O)C(=O)N[C@@H](CC(C)C)C(=O)N[C@@H](CCC(=O)O)C(=O)N[C@@H](C)C(=O)NCC(=O)N1CCC[C@H]1C(=O)N[C@@H](CO)C(=O)N[C@@H](CO)C(=O)NCC(=O)N[C@@H](C)C(=O)N1CCC[C@H]1C(=O)N1CCC[C@H]1C(=O)N1CCC[C@H]1C(=O)N[C@@H](CO)C(N)=O)C(C)C)[C@@H](C)CC [Example 120] (H-Y[Aib]EGT[αMePhe(2-F)]ISDYSILLDKIHQ[Aib]DFVE[4Pal]K([AEEA-AEEA-γGlu-C20 diacid])LEAGPSSGAPPPS-NH2) | 0.171 | > 912
CC[C@H](C)[C@H](NC(=O)[C@H](CO)NC(=O)[C@H](Cc1ccc(O)cc1)NC(=O)[C@H](CC(=O)O)NC(=O)[C@H](CO)NC(=O)[C@@H](NC(=O)[C@](C)(CC)NC(=O)[C@@H](NC(=O)CNC(=O)[C@H](CCC(=O)O)NC(=O)C(C)(C)NC(=O)[C@@H](N)Cc1ccc(O)cc1)[C@@H](C)O)[C@@H](C)CC)C(=O)N[C@@](C)(CC(C)C)C(=O)N[C@@H](CC(C)C)C(=O)N[C@@H](CC(=O)O)C(=O)N[C@@H](CCCN)C(=O)N[C@@H](CCCCNC(=O)COCCOCCNC(=O)COCCOCCNC(=O)CC[C@H](NC(=O)CCCCCCCCCCCCCCCCCCC(=O)O)C(=O)O)C(=O)N[C@@H](Cc1c[nH]cn1)C(=O)N[C@@H](CCC(N)=O)C(=O)NC(C)(C)C(=O)N[C@@H](CC(=O)O)C(=O)N[C@@H](Cc1ccccc1)C(=O)N[C@H](C(=O)N[C@@H](CCC(=O)O)C(=O)N[C@@H](Cc1ccncc1)C(=O)N[C@@H](CC(C)C)C(=O)N[C@@H](CC(C)C)C(=O)N[C@@H](CCC(=O)O)C(=O)N[C@H](C(=O)NCC(=O)N1CCC[C@H]1C(=O)N[C@@H](CO)C(=O)N[C@@H](CO)C(=O)NCC(=O)N[C@@H](C)C(=O)N1CCC[C@H]1C(=O)N1CCC[C@H]1C(=O)N1CCC[C@H]1C(=O)N[C@@H](CO)C(N)=O)[C@@H](C)O)C(C)C [Example 77] (H-Y[Aib]EGT[Iva]ISDYSI[αMeL]LD[Orn]K([AEEA-AEEA-γGlu-C20 diacid])HQ[Aib]DFVE[4Pal]LLETGPSSGAPPPS-NH2) | 0.0841 | > 905
